37 molecules from ChEMBL document CHEMBL4680228 (Eur J Med Chem, 2020) can be followed below.

Activity calls are given as the source filed them. No cut-off for these calls is given here. Bounds are passed on as bounds.

Assay [1] addresses von Hippel-Lindau disease tumor suppressor/ALK tyrosine kinase receptor/Nucleophosmin (Homo sapiens, UniProt Q9UM73+P06748+P40337). The assay is described as follows: Protac activity at VHL/NPM-ALK fusion protein in human SR cells assessed as degradation of ALK. Format: cell-based.
For assay [2], the system named is SR. In words: Antiproliferative activity against human SR cells assessed as reduction in cell growth. The class given is functional, cell-based.
Assay [3] has as its target NPM/ALK (Nucleophosmin/ALK tyrosine kinase receptor) (Homo sapiens) (UniProt Q9UM73+P06748). In words: Induction of NPM-ALK fusion protein degradation in human SR cells. The class given is cell-based.
The subject of assay [4] is NCI-H69. The assay is described as follows: Antiproliferative activity against human NCI-H69 cells assessed as inhibition of cell proliferation. Format: functional, cell-based.
The nature of assay [5]: cells. The following applies: Homo sapiens, NCI-H1688.
Description: Antiproliferative activity against human NCI-H1688 cells assessed as inhibition of cell proliferation

von Hippel-Lindau disease tumor suppressor/ALK tyrosine kinase receptor/Nucleophosmin, sequence (Q9UM73 whole entry, the tested form may be a part): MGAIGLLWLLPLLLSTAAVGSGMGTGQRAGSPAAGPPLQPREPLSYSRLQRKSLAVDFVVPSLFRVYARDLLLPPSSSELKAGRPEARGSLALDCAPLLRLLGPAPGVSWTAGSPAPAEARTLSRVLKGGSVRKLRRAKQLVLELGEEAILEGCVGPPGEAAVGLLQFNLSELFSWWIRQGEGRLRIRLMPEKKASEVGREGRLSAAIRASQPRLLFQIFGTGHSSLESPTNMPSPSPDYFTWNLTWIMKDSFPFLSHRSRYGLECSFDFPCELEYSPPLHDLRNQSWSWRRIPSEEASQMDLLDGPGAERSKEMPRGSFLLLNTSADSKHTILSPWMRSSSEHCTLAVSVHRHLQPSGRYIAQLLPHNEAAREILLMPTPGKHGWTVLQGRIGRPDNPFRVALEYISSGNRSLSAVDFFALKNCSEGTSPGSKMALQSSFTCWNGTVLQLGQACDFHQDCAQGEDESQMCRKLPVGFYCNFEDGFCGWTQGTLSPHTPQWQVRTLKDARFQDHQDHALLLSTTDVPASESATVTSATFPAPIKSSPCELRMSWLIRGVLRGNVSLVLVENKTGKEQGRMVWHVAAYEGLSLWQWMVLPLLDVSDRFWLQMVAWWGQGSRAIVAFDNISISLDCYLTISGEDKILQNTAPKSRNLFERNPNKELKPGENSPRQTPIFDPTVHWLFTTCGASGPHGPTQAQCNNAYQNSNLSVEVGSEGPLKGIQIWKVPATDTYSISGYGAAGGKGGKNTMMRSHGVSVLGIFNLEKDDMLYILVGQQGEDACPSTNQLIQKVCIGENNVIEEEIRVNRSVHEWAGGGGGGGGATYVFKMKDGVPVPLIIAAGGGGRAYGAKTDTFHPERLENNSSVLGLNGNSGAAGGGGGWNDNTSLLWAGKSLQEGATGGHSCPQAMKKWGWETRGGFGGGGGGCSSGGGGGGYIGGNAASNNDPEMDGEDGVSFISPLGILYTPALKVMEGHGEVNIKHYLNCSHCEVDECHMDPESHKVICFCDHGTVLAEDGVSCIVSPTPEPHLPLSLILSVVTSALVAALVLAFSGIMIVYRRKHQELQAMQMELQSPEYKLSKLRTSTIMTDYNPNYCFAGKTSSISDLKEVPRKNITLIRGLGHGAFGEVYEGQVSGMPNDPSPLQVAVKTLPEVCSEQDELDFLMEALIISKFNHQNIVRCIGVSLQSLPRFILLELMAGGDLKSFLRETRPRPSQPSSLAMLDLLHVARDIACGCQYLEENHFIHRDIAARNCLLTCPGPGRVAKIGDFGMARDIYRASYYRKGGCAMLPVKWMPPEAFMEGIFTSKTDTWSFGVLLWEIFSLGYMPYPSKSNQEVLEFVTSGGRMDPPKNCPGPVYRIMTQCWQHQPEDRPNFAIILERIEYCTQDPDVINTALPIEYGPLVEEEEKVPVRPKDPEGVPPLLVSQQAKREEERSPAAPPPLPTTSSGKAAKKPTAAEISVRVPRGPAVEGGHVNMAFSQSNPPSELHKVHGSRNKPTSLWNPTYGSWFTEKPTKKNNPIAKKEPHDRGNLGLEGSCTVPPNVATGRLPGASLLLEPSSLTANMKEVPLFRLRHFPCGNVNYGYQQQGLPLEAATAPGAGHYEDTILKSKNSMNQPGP
von Hippel-Lindau disease tumor suppressor/ALK tyrosine kinase receptor/Nucleophosmin, sequence (P06748 whole entry, the tested form may be a part): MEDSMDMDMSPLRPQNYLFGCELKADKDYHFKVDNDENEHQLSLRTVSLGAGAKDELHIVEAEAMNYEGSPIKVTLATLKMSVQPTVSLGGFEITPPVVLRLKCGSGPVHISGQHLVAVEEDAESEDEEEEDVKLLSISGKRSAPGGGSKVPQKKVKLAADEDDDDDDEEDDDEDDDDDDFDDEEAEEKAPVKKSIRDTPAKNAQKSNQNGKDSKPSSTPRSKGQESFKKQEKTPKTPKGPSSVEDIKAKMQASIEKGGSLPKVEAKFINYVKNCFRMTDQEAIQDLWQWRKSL
von Hippel-Lindau disease tumor suppressor/ALK tyrosine kinase receptor/Nucleophosmin, sequence (P40337 whole entry, the tested form may be a part): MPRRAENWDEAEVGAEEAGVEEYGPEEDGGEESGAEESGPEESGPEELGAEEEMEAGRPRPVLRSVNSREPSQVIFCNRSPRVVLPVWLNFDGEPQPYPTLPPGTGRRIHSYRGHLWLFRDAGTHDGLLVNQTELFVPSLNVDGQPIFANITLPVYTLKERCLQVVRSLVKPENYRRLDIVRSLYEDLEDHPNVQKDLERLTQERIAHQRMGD
NPM/ALK (Nucleophosmin/ALK tyrosine kinase receptor) (Homo sapiens), sequence (P06748 whole entry partner, the tested form may be a part): as the sequence (P06748 whole entry, the tested form may be a part) above
NPM/ALK (Nucleophosmin/ALK tyrosine kinase receptor) (Homo sapiens), sequence (Q9UM73 19-1620 limits assumed): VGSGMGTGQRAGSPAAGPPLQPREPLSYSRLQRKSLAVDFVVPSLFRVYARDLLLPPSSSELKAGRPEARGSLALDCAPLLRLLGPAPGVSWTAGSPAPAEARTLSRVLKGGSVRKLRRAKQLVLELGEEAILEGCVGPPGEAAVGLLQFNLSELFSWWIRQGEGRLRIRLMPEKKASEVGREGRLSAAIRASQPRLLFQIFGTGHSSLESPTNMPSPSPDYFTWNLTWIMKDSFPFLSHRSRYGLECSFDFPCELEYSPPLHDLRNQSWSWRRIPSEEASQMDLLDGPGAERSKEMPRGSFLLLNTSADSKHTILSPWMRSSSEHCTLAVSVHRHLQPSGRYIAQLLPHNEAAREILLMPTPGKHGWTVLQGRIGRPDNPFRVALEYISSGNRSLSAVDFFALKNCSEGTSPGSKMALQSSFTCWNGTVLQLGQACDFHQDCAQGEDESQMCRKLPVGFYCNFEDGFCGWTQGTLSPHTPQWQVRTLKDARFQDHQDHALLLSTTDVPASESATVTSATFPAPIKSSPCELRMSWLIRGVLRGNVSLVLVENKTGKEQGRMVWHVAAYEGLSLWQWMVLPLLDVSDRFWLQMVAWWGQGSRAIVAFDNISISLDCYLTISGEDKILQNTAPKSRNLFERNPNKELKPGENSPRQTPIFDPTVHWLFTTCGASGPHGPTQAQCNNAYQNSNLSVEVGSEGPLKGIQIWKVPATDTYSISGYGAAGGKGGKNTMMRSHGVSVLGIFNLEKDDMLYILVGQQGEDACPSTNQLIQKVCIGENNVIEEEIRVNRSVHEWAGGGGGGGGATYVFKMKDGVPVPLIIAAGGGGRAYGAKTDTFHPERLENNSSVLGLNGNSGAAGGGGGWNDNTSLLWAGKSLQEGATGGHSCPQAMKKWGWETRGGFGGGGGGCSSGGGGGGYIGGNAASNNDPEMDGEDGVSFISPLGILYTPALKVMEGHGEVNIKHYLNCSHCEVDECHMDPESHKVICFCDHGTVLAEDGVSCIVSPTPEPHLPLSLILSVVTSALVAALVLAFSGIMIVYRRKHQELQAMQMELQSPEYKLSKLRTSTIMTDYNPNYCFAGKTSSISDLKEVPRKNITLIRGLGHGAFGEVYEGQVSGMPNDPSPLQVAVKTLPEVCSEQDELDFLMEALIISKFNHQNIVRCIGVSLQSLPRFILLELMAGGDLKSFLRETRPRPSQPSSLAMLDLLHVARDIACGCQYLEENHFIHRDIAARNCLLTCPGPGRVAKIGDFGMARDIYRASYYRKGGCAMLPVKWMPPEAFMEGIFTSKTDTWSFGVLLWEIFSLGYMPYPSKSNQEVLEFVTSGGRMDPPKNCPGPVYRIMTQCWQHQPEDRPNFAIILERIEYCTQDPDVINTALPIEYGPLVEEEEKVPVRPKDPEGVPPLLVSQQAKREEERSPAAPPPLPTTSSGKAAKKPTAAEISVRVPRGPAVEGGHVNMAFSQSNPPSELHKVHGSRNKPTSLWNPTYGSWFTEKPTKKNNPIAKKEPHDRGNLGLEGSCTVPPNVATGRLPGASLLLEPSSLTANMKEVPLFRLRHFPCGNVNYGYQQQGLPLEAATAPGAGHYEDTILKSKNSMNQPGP

What is called DC50 is the midpoint of the concentration-degradation curve. Turning to `COc1cc(N2CCC(N3CCN(C(=O)CCCCCCCCC(=O)N[C@H](C(=O)N4C[C@H](O)C[C@H]4C(=O)NCc4ccc(-c5scnc5C)cc4)C(C)(C)C)CC3)CC2)ccc1Nc1ncc(Cl)c(Nc2ccccc2P(C)(C)=O)n1`, in assay [1], the half-maximal degradation concentration (DC50) came out at 7.5 nM. In assay [2], the outcome was Active. In the case of `COc1cc(N2CCC(NC(=O)CCCCCCCCC(=O)N[C@H](C(=O)N3C[C@H](O)C[C@H]3C(=O)NCc3ccc(-c4scnc4C)cc3)C(C)(C)C)CC2)ccc1Nc1ncc(Cl)c(Nc2ccccc2P(C)(C)=O)n1`, in assay [1], the DC50 came out at 7.2 nM. Besides, the result in assay [2] was Active.

`COc1cc(N2CCC(NC(=O)CCCCCC(=O)N[C@H](C(=O)N3C[C@H](O)C[C@H]3C(=O)NCc3ccc(-c4scnc4C)cc3)C(C)(C)C)CC2)ccc1Nc1ncc(Cl)c(Nc2ccccc2P(C)(C)=O)n1`: the outcome in assay [2] was Active. Same read-out and setting: the value for `COc1cc(N2CCC(N3CCN(C(=O)CCOCCOCCOCCOCCC(=O)N[C@H](C(=O)N4C[C@H](O)C[C@H]4C(=O)NCc4ccc(-c5scnc5C)cc4)C(C)(C)C)CC3)CC2)ccc1Nc1ncc(Cl)c(Nc2ccccc2P(C)(C)=O)n1` was “inactive”; that for `COc1cc(N2CCC(NC(=O)CCOCCOCCOCCOCCC(=O)N[C@H](C(=O)N3C[C@H](O)C[C@H]3C(=O)NCc3ccc(-c4scnc4C)cc3)C(C)(C)C)CC2)ccc1Nc1ncc(Cl)c(Nc2ccccc2P(C)(C)=O)n1` was “inactive”. One may read the IC50 as the concentration needed to halve the response being measured. Take `COc1cc(N2CCC(N)CC2)ccc1Nc1ncc(Cl)c(Nc2ccccc2P(C)(C)=O)n1`: the outcome in assay [3] was inactive. Besides, the half-maximal inhibitory concentration (IC50) in assay [2] was 1.7 nM. As for `COc1cc(N2CCC(N3CCNCC3)CC2)ccc1Nc1ncc(Cl)c(Nc2ccccc2P(C)(C)=O)n1`, in assay [3], the result was inactive. Further, in assay [2], the 50% inhibitory concentration (IC50) was found to be 6.8 nM. As to `COc1cc(N2CCN(C(=O)CCCCCCCC(=O)N[C@H](C(=O)N3C[C@H](O)C[C@H]3C(=O)NCc3ccc(-c4scnc4C)cc3)C(C)(C)C)CC2)ccc1Nc1ncc(Cl)c(Nc2ccccc2P(C)(C)=O)n1`, the 50% degradation concentration (DC50) in assay [1] turned out to be 15 nM. In addition, in assay [2], the outcome was Active. For the molecule `COc1cc(N2CCNCC2)ccc1Nc1ncc(Cl)c(Nc2ccccc2P(C)(C)=O)n1`, in assay [2], the half-maximal inhibitory concentration (IC50) was 1.6 nM. For the molecule `COc1cc(N2CCN(C(=O)CCOCCOCCOCCC(=O)N[C@H](C(=O)N3C[C@H](O)C[C@H]3C(=O)NCc3ccc(-c4scnc4C)cc3)C(C)(C)C)CC2)ccc1Nc1ncc(Cl)c(Nc2ccccc2P(C)(C)=O)n1`, the result in assay [2] was inactive. Consider `COc1cc(N2CCC(NC(=O)CCCC(=O)N[C@H](C(=O)N3C[C@H](O)C[C@H]3C(=O)NCc3ccc(-c4scnc4C)cc3)C(C)(C)C)CC2)ccc1Nc1ncc(Cl)c(Nc2ccccc2P(C)(C)=O)n1`, for which the outcome in assay [2] was Active. Same read-out and setting: the value for `COc1cc(N2CCC(NC(=O)CCOCCOCCC(=O)N[C@H](C(=O)N3C[C@H](O)C[C@H]3C(=O)NCc3ccc(-c4scnc4C)cc3)C(C)(C)C)CC2)ccc1Nc1ncc(Cl)c(Nc2ccccc2P(C)(C)=O)n1` was “inactive”; that for `COc1cc(N2CCN(C(=O)CCOCCOCCOCCOCCOCCC(=O)N[C@H](C(=O)N3C[C@H](O)C[C@H]3C(=O)NCc3ccc(-c4scnc4C)cc3)C(C)(C)C)CC2)ccc1Nc1ncc(Cl)c(Nc2ccccc2P(C)(C)=O)n1` was “inactive”; that for `COc1cc(N2CCC(NC(=O)CCOCCOCCOCCOCCOCCC(=O)N[C@H](C(=O)N3C[C@H](O)C[C@H]3C(=O)NCc3ccc(-c4scnc4C)cc3)C(C)(C)C)CC2)ccc1Nc1ncc(Cl)c(Nc2ccccc2P(C)(C)=O)n1` was “inactive”. Still for that read-out and setting: the value for `COc1cc(N2CCN(C(=O)CCCCCC(=O)N[C@H](C(=O)N3C[C@H](O)C[C@H]3C(=O)NCc3ccc(-c4scnc4C)cc3)C(C)(C)C)CC2)ccc1Nc1ncc(Cl)c(Nc2ccccc2P(C)(C)=O)n1` was “Active”. As to `COc1cc(N2CCC(NC(=O)CCCCCCCC(=O)N[C@H](C(=O)N3C[C@H](O)C[C@H]3C(=O)NCc3ccc(-c4scnc4C)cc3)C(C)(C)C)CC2)ccc1Nc1ncc(Cl)c(Nc2ccccc2P(C)(C)=O)n1`, the DC50 in assay [1] stood at 20.9 nM. Moreover, in assay [2], the result was Active. Consider `COc1cc(N2CCN(C(=O)CCCC(=O)N[C@H](C(=O)N3C[C@H](O)C[C@H]3C(=O)NCc3ccc(-c4scnc4C)cc3)C(C)(C)C)CC2)ccc1Nc1ncc(Cl)c(Nc2ccccc2P(C)(C)=O)n1`, for which the result in assay [2] was Active. On the same count and under the same terms, with `COc1cc(N2CCC(NC(=O)CCCCC(=O)N[C@H](C(=O)N3C[C@H](O)C[C@H]3C(=O)NCc3ccc(-c4scnc4C)cc3)C(C)(C)C)CC2)ccc1Nc1ncc(Cl)c(Nc2ccccc2P(C)(C)=O)n1` the entry was “Active”.

For the molecule `COc1cc(N2CCC(N3CCN(C(=O)CCCC(=O)N[C@H](C(=O)N4C[C@H](O)C[C@H]4C(=O)NCc4ccc(-c5scnc5C)cc4)C(C)(C)C)CC3)CC2)ccc1Nc1ncc(Cl)c(Nc2ccccc2P(C)(C)=O)n1`, the outcome in assay [2] was Active. On the same count and under the same terms, with `COc1cc(N2CCC(N3CCN(C(=O)CCC(=O)N[C@H](C(=O)N4C[C@H](O)C[C@H]4C(=O)NCc4ccc(-c5scnc5C)cc4)C(C)(C)C)CC3)CC2)ccc1Nc1ncc(Cl)c(Nc2ccccc2P(C)(C)=O)n1` the entry was “Active”. On to `COc1cc(N2CCC(N3CCN(C(=O)CCCCCCC(=O)N[C@H](C(=O)N4C[C@H](O)C[C@H]4C(=O)NCc4ccc(-c5scnc5C)cc4)C(C)(C)C)CC3)CC2)ccc1Nc1ncc(Cl)c(Nc2ccccc2P(C)(C)=O)n1`, for which, in assay [1], the DC50 stood at 11.4 nM. In assay [2], the outcome was Active.

For `COc1cc(N2CCC(NC(=O)CCCCCCC(=O)N[C@H](C(=O)N3C[C@H](O)C[C@H]3C(=O)NCc3ccc(-c4scnc4C)cc3)C(C)(C)C)CC2)ccc1Nc1ncc(Cl)c(Nc2ccccc2P(C)(C)=O)n1`, in assay [1], the 50% degradation concentration (DC50) is 9.1 nM. In addition, the outcome in assay [2] was Active. For `COc1cc(N2CCC(N3CCN(C(=O)CCOCCOCCOCCOCCOCCC(=O)N[C@H](C(=O)N4C[C@H](O)C[C@H]4C(=O)NCc4ccc(-c5scnc5C)cc4)C(C)(C)C)CC3)CC2)ccc1Nc1ncc(Cl)c(Nc2ccccc2P(C)(C)=O)n1`, the result in assay [2] was inactive.

Regarding `COc1cc(N2CCN(C(=O)CCCCCCC(=O)N[C@H](C(=O)N3C[C@H](O)C[C@H]3C(=O)NCc3ccc(-c4scnc4C)cc3)C(C)(C)C)CC2)ccc1Nc1ncc(Cl)c(Nc2ccccc2P(C)(C)=O)n1`, the DC50 in assay [1] is over 50 nM. Moreover, the result in assay [2] was Active. In the case of `COc1cc(N2CCC(N3CCN(C(=O)CCCCCCCC(=O)N[C@H](C(=O)N4C[C@H](O)C[C@H]4C(=O)NCc4ccc(-c5scnc5C)cc4)C(C)(C)C)CC3)CC2)ccc1Nc1ncc(Cl)c(Nc2ccccc2P(C)(C)=O)n1`, the DC50 in assay [1] is 25.1 nM. Also, in assay [2], the result was Active. As for `COc1cc(N2CCC(N3CCN(C(=O)CCCCCC(=O)N[C@H](C(=O)N4C[C@H](O)C[C@H]4C(=O)NCc4ccc(-c5scnc5C)cc4)C(C)(C)C)CC3)CC2)ccc1Nc1ncc(Cl)c(Nc2ccccc2P(C)(C)=O)n1`, in assay [2], the outcome was Active. Regarding `COc1cc(N2CCN(C(=O)CCOCCOCCC(=O)N[C@H](C(=O)N3C[C@H](O)C[C@H]3C(=O)NCc3ccc(-c4scnc4C)cc3)C(C)(C)C)CC2)ccc1Nc1ncc(Cl)c(Nc2ccccc2P(C)(C)=O)n1`, in assay [2], the outcome was inactive.

As to `COc1cc(N2CCC(N3CCN(C(=O)CCCCC(=O)N[C@H](C(=O)N4C[C@H](O)C[C@H]4C(=O)NCc4ccc(-c5scnc5C)cc4)C(C)(C)C)CC3)CC2)ccc1Nc1ncc(Cl)c(Nc2ccccc2P(C)(C)=O)n1`, the outcome in assay [2] was Active. Turning to `COc1cc(N2CCC(N3CCN(C(=O)CCOCCOCCC(=O)N[C@H](C(=O)N4C[C@H](O)C[C@H]4C(=O)NCc4ccc(-c5scnc5C)cc4)C(C)(C)C)CC3)CC2)ccc1Nc1ncc(Cl)c(Nc2ccccc2P(C)(C)=O)n1`, in assay [2], the outcome was inactive. The same measure, in the same setting: the value for `COc1cc(N2CCN(C(=O)CCC(=O)N[C@H](C(=O)N3C[C@H](O)C[C@H]3C(=O)NCc3ccc(-c4scnc4C)cc3)C(C)(C)C)CC2)ccc1Nc1ncc(Cl)c(Nc2ccccc2P(C)(C)=O)n1` was “Active”; that for `COc1cc(N2CCN(C(=O)CCCCC(=O)N[C@H](C(=O)N3C[C@H](O)C[C@H]3C(=O)NCc3ccc(-c4scnc4C)cc3)C(C)(C)C)CC2)ccc1Nc1ncc(Cl)c(Nc2ccccc2P(C)(C)=O)n1` was “Active”; that for `COc1cc(N2CCC(N3CCN(C(=O)CCOCCOCCOCCC(=O)N[C@H](C(=O)N4C[C@H](O)C[C@H]4C(=O)NCc4ccc(-c5scnc5C)cc4)C(C)(C)C)CC3)CC2)ccc1Nc1ncc(Cl)c(Nc2ccccc2P(C)(C)=O)n1` was “inactive”. The same measure, in the same setting: with `COc1cc(N2CCC(NC(=O)CCOCCOCCOCCC(=O)N[C@H](C(=O)N3C[C@H](O)C[C@H]3C(=O)NCc3ccc(-c4scnc4C)cc3)C(C)(C)C)CC2)ccc1Nc1ncc(Cl)c(Nc2ccccc2P(C)(C)=O)n1` the entry was “inactive”; with `COc1cc(N2CCN(C(=O)CCOCCOCCOCCOCCC(=O)N[C@H](C(=O)N3C[C@H](O)C[C@H]3C(=O)NCc3ccc(-c4scnc4C)cc3)C(C)(C)C)CC2)ccc1Nc1ncc(Cl)c(Nc2ccccc2P(C)(C)=O)n1`, “inactive”.

Consider `Cc1ncsc1-c1ccc(CNC(=O)[C@@H]2C[C@@H](O)CN2C(=O)[C@@H](NC(=O)CCCCCCCCCC(=O)O)C(C)(C)C)cc1`, for which the IC50 in assay [4] was over 40000 nM; in assay [5], over 45000 nM. Take `COc1cc(N2CCC(NC(=O)CCC(=O)N[C@H](C(=O)N3C[C@H](O)C[C@H]3C(=O)NCc3ccc(-c4scnc4C)cc3)C(C)(C)C)CC2)ccc1Nc1ncc(Cl)c(Nc2ccccc2P(C)(C)=O)n1`: the outcome in assay [2] was Active. As for `COc1cc(N2CCN(C(=O)CCCCCCCCC(=O)N[C@H](C(=O)N3C[C@H](O)C[C@H]3C(=O)NCc3ccc(-c4scnc4C)cc3)C(C)(C)C)CC2)ccc1Nc1ncc(Cl)c(Nc2ccccc2P(C)(C)=O)n1`, in assay [1], the DC50 was over 50 nM. Besides, the result in assay [2] was Active.
